Measured values taken from the NIST ThermoML archive (doi:10.1021/je200820v).

Legend:
[1] = Liquid, Closed cell (Static) method
[2] = excess molar enthalpy (molar enthalpy of mixing); xn = mol fraction of the nth substance listed; details: 303.15 K, 101 kPa, Liquid, Calvet calorimetry

CCN(CC)CCN [N,N-diethylethane-1,2-diamine]
[1]
Details | vapor or sublimation pressure [kPa]
273.15 K | 0.1291
293.15 K | 0.5288
298.15 K | 0.7256
303.15 K | 0.9831
313.15 K | 1.741
323.15 K | 2.957
333.15 K | 4.833
343.15 K | 7.634
353.15 K | 11.7
363.15 K | 17.43

CCN(CC)CCN [N,N-diethylethane-1,2-diamine] + CCCCCCC
[2]
Details | excess molar enthalpy [kcal/mol]
x1 = 0.0612 | 0.0679
x1 = 0.1118 | 0.115
x1 = 0.1488 | 0.143
x1 = 0.2038 | 0.179
x1 = 0.2452 | 0.201
x1 = 0.3051 | 0.222
x1 = 0.4078 | 0.24
x1 = 0.5068 | 0.239
x1 = 0.6156 | 0.216
x1 = 0.7084 | 0.183
x1 = 0.7471 | 0.164
x1 = 0.8058 | 0.135
x1 = 0.8841 | 0.0866

CCCCCCC [heptane]
[1]
Details | vapor or sublimation pressure [kPa]
273.15 K | 1.536
293.15 K | 4.76
298.15 K | 6.135
303.15 K | 7.829
313.15 K | 12.39
323.15 K | 18.96
333.15 K | 28.14
343.15 K | 40.64
353.15 K | 57.27
363.15 K | 78.94
